# Values of other authors, collected in patent publication US20220117972A1, “USE OF PPAR-DELTA AGONISTS IN THE TREATMENT OF MITOCHONDRIAL MYOPATHY” (Reneo Pharmaceuticals, Inc., priority 2019, published 2022).
# Tested on: control myoblasts
# Details: cultured patient muscle cells study; cited from earlier work
row,SMILES,FAO stimulation
1,Cc1cc(SCc2sc(-c3ccc(C(F)(F)F)c(F)c3)nc2C)ccc1OCC(=O)O [GW 072],stimulated FAO
2,CC(C)(Sc1ccc(CCN(CCCCC2CCCCC2)C(=O)NC2CCCCC2)cc1)C(=O)O [GW 7647],to a lower extent
